Data from US11926629B1, “Pyrido[3′,4′:4,5]pyrrolo[2,3-c]isoquinoline compounds as CK2 inhibitors” (KING FAISAL UNIVERSITY, priority 2023, dated 2024).

What was measured:
[1] = target: T1, recombinant human CK2 (RRββ-holoenzyme) (Homo sapiens, UniProt P68400); assay: CK2 Kinase Assay; assay type: biochemical; conditions: final ATP concentration 15 μM, 10 min at 30° C.; read-out: IC50 protein kinase CK2 activity
T1 construct: purchased Millipore
Procedure: CK2 Kinase Assay was conducted using the protocol as described in Pierre F. et al; J. Med. Chem. 2011, 54, 635-654. The tested compounds in aqueous solution were added at a volume of 10 μL to a reaction mixture comprising 10 μL of assay dilution buffer (ADB; 20 mM MOPS, pH 7.2, 25 mM β-glycerol phosphate, 5 mM EGTA, 1 mM sodium orthovanadate, and 1 mM dithiothreitol), 10 μL of substrate peptide (RRRDDDSDDD, dissolved in ADB at a concentration of 1 mM), 10 μL of recombinant human CK2 (RRββ-holoenzyme, 25 ng dissolved in ADB; Millipore). Reactions were initiated by the addition of 10 μL of ATP solution (90% 75 mMMgCl2, 75 μM ATP (final ATP concentration:15 μM) dissolved in ADB; 10% [γ-33P] ATP (stock 1 mCi/100 μL; 3000 Ci/mmol (Perkin-Elmer) and maintained for 10 min at 30° C. The reactions were quenched with 100 μL of 0.75% phosphoric acid and then transferred to and filtered through a phosphor cellulose filter plate (Millipore). After washing each well five times with 0.75% phosphoric acid, the plate was dried under vacuum for 5 min and, following the addition of 15 μL of scintillation fluid to each well, the residual radioactivity was measured using a Wallac luminescence counter. The IC50 values were derived from eight concentrations of test inhibitors.

A375 (melanoma) = assay: In vitro cytotoxic activity (MTT) assay, A375; assay type: cell-based; conditions: Homo sapiens, A-375; A375 (melanoma) cells, exposed for 96 hours; read-out: IC50, 50% inhibition of cell proliferation
Procedure: (§1) Compounds 1-15 were screened for their in vitro cytotoxic activity utilizing a 3-(4,5-dimethyl-thiazol-2-yl)-2,5-diphenyltetrazolium bromide (MTT) assay against selected cancer human cell lines consisting of PC3 (prostate). HCT116 (colon), A375 (melanoma), H1299 (lung). MIAPaCa-2 (pancreas), HL60 (leukemia). MCF7 (breast), MDA-MB-231 (breast) (T. Mosmann, J. Immunol. Meth., 1983, 65, 55-63). The cells were cultured at 37° C. in RMPI1640 medium supplemented with 10% fetal bovine serum, 50 IU/mL penicillin, and 50 μg/mL streptomycin in a 5% CO2 incubator. All cells were sub-cultured 3 times/week by trypsinisation. Viable cells were seeded and allowed to adhere for 12 h before a test drug was added in 96-well plates at an initial density of 1.0×10^5 cells/mL. Tumour cell lines were separately exposed to various concentrations of the tested compounds followed by incubation at a temperature of 37° C. during 96 h inside a medium of fresh RMPI 1640. Cells were subsequently incubated at 37° C. using MTT at 0.5 mg/mL during 4 h. After removal of supernatant, formazan crystals were dissolved in isopropanol and the optical density was measured at 570 nm. CX-4945 was used as a positive control.

MDA-MB-231 (breast) = assay: In vitro cytotoxic activity (MTT) assay, MDA-MB-231; assay type: cell-based; conditions: Homo sapiens; MDA-MB-231 (breast) cells, exposed for 96 hours; read-out: IC50, 50% inhibition of cell proliferation
Procedure: as §1

HL60 (leukemia) = assay: In vitro cytotoxic activity (MTT) assay, HL60; assay type: cell-based; conditions: Homo sapiens, HL-60; HL60 (leukemia) cells, exposed for 96 hours; read-out: IC50, 50% inhibition of cell proliferation
Procedure: as §1

HCT116 (colon) = assay: In vitro cytotoxic activity (MTT) assay, HCT116; assay type: cell-based; conditions: Homo sapiens, HCT-116; HCT116 (colon) cells, exposed for 96 hours; read-out: IC50, 50% inhibition of cell proliferation
Procedure: as §1

MCF7 (breast) = assay: In vitro cytotoxic activity (MTT) assay, MCF7; assay type: cell-based; conditions: Homo sapiens; MCF7 (breast) cells, exposed for 96 hours; read-out: IC50, 50% inhibition of cell proliferation
Procedure: as §1

H1299 (lung) = assay: In vitro cytotoxic activity (MTT) assay, H1299; assay type: cell-based; conditions: Homo sapiens, NCI-H1299; H1299 (lung) cells, exposed for 96 hours; read-out: IC50, 50% inhibition of cell proliferation
Procedure: as §1

MIAPaCa-2 (pancreas) = assay: In vitro cytotoxic activity (MTT) assay, MIAPaCa-2; assay type: cell-based; conditions: Homo sapiens, MIA PaCa-2; MIAPaCa-2 (pancreas) cells, exposed for 96 hours; read-out: IC50, 50% inhibition of cell proliferation
Procedure: as §1

PC3 (prostate) = assay: In vitro cytotoxic activity (MTT) assay, PC3; assay type: cell-based; conditions: Homo sapiens, Prostate cell; PC3 (prostate) cells, exposed for 96 hours; read-out: IC50, 50% inhibition of cell proliferation
Procedure: as §1

T1 sequence (P68400 whole entry): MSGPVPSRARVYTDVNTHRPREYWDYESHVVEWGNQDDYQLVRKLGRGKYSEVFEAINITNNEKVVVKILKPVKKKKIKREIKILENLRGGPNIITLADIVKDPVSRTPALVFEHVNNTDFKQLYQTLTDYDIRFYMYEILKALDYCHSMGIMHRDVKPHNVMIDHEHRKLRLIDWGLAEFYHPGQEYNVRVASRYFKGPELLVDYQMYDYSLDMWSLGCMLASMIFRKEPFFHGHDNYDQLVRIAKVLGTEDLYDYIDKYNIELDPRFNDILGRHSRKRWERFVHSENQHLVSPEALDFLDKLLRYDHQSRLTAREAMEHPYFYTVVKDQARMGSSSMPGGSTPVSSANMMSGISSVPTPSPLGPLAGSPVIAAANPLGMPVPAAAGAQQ
T1 sequence (P67870 whole entry partner): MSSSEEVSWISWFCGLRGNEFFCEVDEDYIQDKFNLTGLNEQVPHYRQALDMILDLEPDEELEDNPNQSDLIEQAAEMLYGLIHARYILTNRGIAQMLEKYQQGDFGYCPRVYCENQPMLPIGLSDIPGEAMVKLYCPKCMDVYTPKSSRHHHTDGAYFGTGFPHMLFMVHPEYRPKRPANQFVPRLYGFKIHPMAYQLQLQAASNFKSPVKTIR

SMILES: O=C(O)c1ccc2c(c1)c(Nc1cccc(Cl)c1)nc1[nH]c3ccncc3c12 [Compound 1, 5-((3-chlorophenyl)amino)-7H-pyrido[3′,4′:4,5]pyrrolo[2,3-c]isoquinoline-3-carboxylic acid]
- IC50 [1]: 0.086 µM
- IC50 (A375 (melanoma)): 3.3 µM
- IC50 (MDA-MB-231 (breast)): 4.4 µM
- IC50 (HL60 (leukemia)): 4.3 µM
- IC50 (HCT116 (colon)): 2 µM
- IC50 (MCF7 (breast)): 3.6 µM
- IC50 (H1299 (lung)): 0.9 µM
- IC50 (MIAPaCa-2 (pancreas)): 1.2 µM
- IC50 (PC3 (prostate)): 1.1 µM
